DBAASP
In brackets after ≈: the same amount, converted by molar mass. Several values for one entry are separate records, joined by “and”; a condition that tells them apart may be missing. Equal values may be shown once.

Experiments:
Experiment in all cases: ≥ marks a high value that may be exact or a test limit, other limits are often not marked, values filed in µg/mL are converted to µM
[1] = test system: Staphylococcus aureus NCTC 10788
[2] = test system: Candida albicans NCPF 1467
[3] = test system: Escherichia coli NCTC 10418
[4] = test system: Staphylococcus aureus NCTC 12493
[5] = test system: Enterococcus faecalis NCTC 12697
[6] = test system: Pseudomonas aeruginosa ATCC 27853
[7] = test system: Salmonella typhimurium KCTC 1926
[8] = test system: Pseudomonas aeruginosa ATCC 15692
[9] = test system: Escherichia coli ATCC 25922
Escherichia coli K-12 = test system: Escherichia coli K-12
[10] = test system: Staphylococcus aureus USA 300
[11] = test system: Candida albicans ATCC 90028
[12] = test system: Cryptococcus neoformans ATCC 208821
[13] = test system: Klebsiella pneumoniae ATCC 700603
[14] = test system: Acinetobacter baumannii ATCC 19606
[15] = test system: Staphylococcus aureus ATCC 43300
[16] = test system: Klebsiella pneumoniae ATCC 13883
[17] = test system: Enterococcus faecalis ATCC 29212
[18] = test system: Candida albicans ATCC 14053
[19] = test system: Staphylococcus aureus ATCC 29213
[20] = test system: Clavibacter michiganensis subsp. michiganensis DSM 46294
[21] = test system: Pectobacterium carotovorum subsp. carotovorum DSM 30168
[22] = test system: Pseudomonas syringae pv. syringae DSM 10604
[23] = test system: Pseudomonas corrugata DSM 7228
[24] = test system: Xanthomonas vesicatoria DSM 50861
[25] = test system: Pseudomonas syringae pv. tomato DC3000

CC[C@H](C)[C@H](NC(=O)[C@H](C)NC(=O)[C@H](Cc1cnc[nH]1)NC(=O)[C@@H]1CCCN1C(=O)[C@@H](NC(=O)[C@H](CC(C)C)NC(=O)[C@H](CO)NC(=O)[C@H](Cc1ccccc1)NC(=O)[C@H](CC(C)C)NC(=O)[C@@H](N)Cc1ccccc1)[C@@H](C)CC)C(=O)NCC(=O)NCC(=O)N[C@@H](CC(C)C)C(=O)N[C@H](C(=O)N[C@@H](CO)C(=O)N[C@@H](C)C(=O)N[C@@H](Cc1ccccc1)C(=O)N[C@@H](CCCCN)C(N)=O)[C@@H](C)CC [FLFSLIPHAIGGLISAFK]
MIC [1]: 20 µM (≈ 38.6 µg/mL) | MIC [2]: ≥ 64 µM | MIC [3]: ≥ 150 µM

CC[C@H](C)[C@H](NC(=O)CNC(=O)CNC(=O)[C@H](CC(C)C)NC(=O)[C@@H](N)Cc1ccccc1)C(=O)N[C@@H](CC(C)C)C(=O)N[C@@H](CC(N)=O)C(=O)N[C@H](C(=O)N[C@H](C(=O)N[C@H](C(=O)NCC(=O)N[C@@H](CC(C)C)C(=O)N[C@@H](CC(C)C)C(N)=O)[C@@H](C)O)[C@@H](C)CC)[C@@H](C)O [FLGGILNTITGLL]
MIC [1]: 30 µM (≈ 39.9 µg/mL) | MIC [2]: ≥ 200 µM

CC[C@H](C)[C@H](NC(=O)[C@@H]1CCCN1C(=O)[C@H](CC(C)C)NC(=O)[C@@H](N)Cc1ccccc1)C(=O)N[C@H](C(=O)N[C@@H](C)C(=O)N[C@@H](CCCCN)C(=O)N[C@@H](CC(C)C)C(=O)N[C@@H](CC(C)C)C(=O)N[C@@H](CO)C(=O)NCC(=O)N[C@@H](CC(C)C)C(=O)N[C@@H](CC(C)C)C(=O)NCC(=O)N[C@@H](CCCN=C(N)N)C(=O)N[C@@H](CCCCN)C(=O)N[C@@H](CCCCN)C(=O)N[C@@H](CCCN=C(N)N)C(=O)N[C@@H](CCCN=C(N)N)C(=O)N[C@@H](CCC(N)=O)C(=O)N[C@@H](CCCN=C(N)N)C(=O)N[C@@H](CCCN=C(N)N)C(=O)N[C@@H](CCCN=C(N)N)C(N)=O)C(C)C [FLPIVAKLLSGLLGRKKRRQRRR]
MIC [1]: 1 µM (≈ 2.76 µg/mL) | MIC [2]: 1 µM (≈ 2.76 µg/mL) | MIC [3]: 2 µM (≈ 5.52 µg/mL) | MIC [4]: 2 µM (≈ 5.52 µg/mL) | MIC [5]: 2 µM (≈ 5.52 µg/mL) | MIC [6]: 2 µM (≈ 5.52 µg/mL)

CC[C@H](C)[C@H](NC(=O)[C@H](Cc1cnc[nH]1)NC(=O)[C@H](Cc1cnc[nH]1)NC(=O)[C@@H](NC(=O)[C@H](CC(C)C)NC(=O)[C@H](Cc1cnc[nH]1)NC(=O)CNC(=O)[C@H](C)NC(=O)CNC(=O)[C@H](Cc1cnc[nH]1)NC(=O)[C@@H](NC(=O)[C@@H](NC(=O)[C@H](CO)NC(=O)CNC(=O)[C@H](C)NC(=O)[C@H](Cc1ccccc1)NC(=O)[C@H](CCCN=C(N)N)NC(=O)[C@H](CC(C)C)NC(=O)[C@@H](N)Cc1ccccc1)C(C)C)[C@@H](C)CC)C(C)C)C(=O)NCC(=O)N[C@H](C(=O)N[C@@H](C)C(=O)N[C@@H](CC(C)C)C(N)=O)C(C)C [FLRFAGSVIHGAGHLVHHIGVAL]
MIC [7]: ≥ 64 µM | MIC [8]: ≥ 32 µM | MIC [9]: 4 µM and 8 µM

CC[C@H](C)[C@H](NC(=O)CNC(=O)[C@H](Cc1cnc[nH]1)NC(=O)[C@@H](NC(=O)[C@@H](NC(=O)[C@H](CO)NC(=O)CNC(=O)[C@@H](NC(=O)[C@H](Cc1ccccc1)NC(=O)[C@H](CCCN=C(N)N)NC(=O)[C@H](CC(C)C)NC(=O)[C@@H](N)Cc1ccccc1)[C@@H](C)CC)C(C)C)[C@@H](C)CC)C(=O)NCC(=O)N[C@@H](Cc1cnc[nH]1)C(=O)N[C@@H](CC(C)C)C(=O)N[C@H](C(=O)N[C@@H](Cc1cnc[nH]1)C(=O)N[C@@H](Cc1cnc[nH]1)C(=O)N[C@H](C(=O)NCC(=O)N[C@H](C(=O)N[C@@H](C)C(=O)N[C@@H](CC(C)C)C(N)=O)C(C)C)[C@@H](C)CC)C(C)C [FLRFIGSVIHGIGHLVHHIGVAL]
MIC [7]: ≥ 64 µM | MIC [8]: ≥ 64 µM

CC[C@H](C)[C@H](NC(=O)[C@H](C)NC(=O)[C@H](CCC(=O)O)NC(=O)[C@H](Cc1cnc[nH]1)NC(=O)[C@H](CC(C)C)NC(=O)CNC(=O)[C@H](CCC(N)=O)NC(=O)[C@H](Cc1ccccc1)NC(=O)[C@@H](NC(=O)[C@H](CCCCN)NC(=O)[C@H](CCCCN)NC(=O)[C@H](CC(C)C)NC(=O)[C@@H](NC(=O)[C@H](CC(N)=O)NC(=O)[C@H](CC(C)C)NC(=O)CN)[C@@H](C)O)C(C)C)C(=O)N[C@@H](CCCCN)C(=O)N[C@@H](CC(C)C)C(=O)N[C@H](C(=O)N[C@@H](CC(N)=O)C(=O)N[C@@H](CC(N)=O)C(=O)N[C@@H](Cc1cnc[nH]1)C(=O)N[C@H](C(=O)N[C@@H](CCC(N)=O)C(=O)O)C(C)C)[C@@H](C)CC [GLNTLKKVFQGLHEAIKLINNHVQ]
MIC (Escherichia coli K-12): ≥ 100 µM | MIC [10]: ≥ 100 µM

CC(C)C[C@H](NC(=O)CNC(=O)[C@H](CO)NC(=O)CNC(=O)[C@H](Cc1cnc[nH]1)NC(=O)[C@H](CCCN=C(N)N)NC(=O)CN)C(=O)NCC(=O)N[C@@H](Cc1cnc[nH]1)C(=O)N[C@@H](CO)C(=O)N[C@@H](CO)C(=O)N[C@@H](CO)C(=O)N[C@@H](Cc1cnc[nH]1)C(=O)NCC(=O)N[C@@H](CCC(N)=O)C(=O)N[C@@H](Cc1cnc[nH]1)C(=O)NCC(=O)N[C@@H](CO)C(=O)NCC(=O)N[C@@H](CO)C(=O)NCC(=O)N[C@@H](CCCN=C(N)N)C(=O)O [GRHGSGLGHSSSHGQHGSGSGR]
MIC [11]: 15.2 µM (≈ 32 µg/mL) | MIC [12]: 15.2 µM (≈ 32 µg/mL) | MIC [13]: > 15.2 µM | MIC [14]: > 15.2 µM | MIC [15]: > 15.2 µM | MIC [6]: > 15.2 µM | MIC [9]: > 15.2 µM

CC[C@H](C)[C@H](NC(=O)[C@@H](NC(=O)[C@H](CC(N)=O)NC(=O)[C@H](CO)NC(=O)[C@H](CC(C)C)NC(=O)[C@@H](NC(=O)CN)C(C)C)C(C)C)C(=O)NCC(=O)N[C@@H](Cc1ccc(O)cc1)C(=O)N[C@@H](CC(C)C)C(=O)N[C@@H](CCCCN)C(=O)N[C@@H](CCCCN)C(=O)N[C@@H](CC(C)C)C(=O)NCC(=O)N[C@H](C(=O)NCC(=O)N[C@@H](C)C(=O)N[C@@H](CC(C)C)C(=O)N[C@@H](CC(N)=O)C(=O)N[C@@H](C)C(=O)N[C@H](C(=O)N[C@@H](CC(C)C)C(=O)N[C@@H](CCCCN)C(=O)N[C@@H](CCC(N)=O)C(N)=O)C(C)C)[C@@H](C)O [GVLSNVIGYLKKLGTGALNAVLKQ]
MIC [16]: 25.3 µM (≈ 62.2 µg/mL) | MIC [17]: 72 µM (≈ 177 µg/mL) | MIC [18]: ≥ 144 µM | MIC [19]: 72 µM (≈ 177 µg/mL) | MIC [6]: 144 µM (≈ 353 µg/mL) | MIC [9]: 25.3 µM (≈ 62.2 µg/mL)

CC[C@H](C)[C@H](NC(=O)[C@H](CC(C)C)NC(=O)[C@H](CCCN=C(N)N)NC(=O)[C@H](CCCCN)NC(=O)[C@@H](NC(=O)[C@@H](NC(=O)[C@H](CCCCN)NC(=O)[C@H](CCCCN)NC(=O)[C@H](CCCCN)NC(=O)[C@@H](N)CCCCN)[C@@H](C)CC)[C@@H](C)CC)C(N)=O [KKKKIIKRLI]
MIC [20]: 7.89 µM (≈ 9.99 µg/mL) | MIC [21]: 7.89 µM (≈ 9.99 µg/mL) | MIC [22]: 0.0789 µM (≈ 0.0999 µg/mL) | MIC [23]: 3.94 µM (≈ 5 µg/mL) | MIC [24]: 7.89 µM (≈ 9.99 µg/mL) | MIC [25]: 0.789 µM (≈ 0.999 µg/mL)

CC[C@H](C)[C@H](NC(=O)[C@@H](NC(=O)[C@H](CCCCN)NC(=O)[C@H](CCCCN)NC(=O)[C@@H](NC(=O)[C@@H](NC(=O)[C@H](CCCCN)NC(=O)[C@H](CCCCN)NC(=O)[C@H](CCCCN)NC(=O)[C@H](CCCCN)NC(=O)[C@H](CCCCN)NC(=O)[C@@H](N)CCCCN)[C@@H](C)CC)[C@@H](C)CC)[C@@H](C)CC)C(N)=O [KKKKKKIIKKII]
MIC [20]: 6.68 µM (≈ 9.99 µg/mL) | MIC [21]: 6.68 µM (≈ 9.99 µg/mL) | MIC [22]: 1.67 µM (≈ 2.5 µg/mL) | MIC [23]: 6.68 µM (≈ 9.99 µg/mL) | MIC [24]: 6.68 µM (≈ 9.99 µg/mL) | MIC [25]: 0.668 µM (≈ 0.999 µg/mL)
